Results: patent US11123398B2, “Chemotherapeutic combinations of cationic antimicrobial peptides and chemotherapeutics” (LYTIX BIOPHARMA AS, priority 2014, dated 2021)
Non-standard residues stand in square brackets, D forms with d. Residues, ends and D or L forms follow the SMILES beside them. Dip = N[C@H](C(=O)O)C(c1ccccc1)c1ccccc1

Experiments:
[1] = tested on: panel of 37 human cancer cell lines; type: cell-based
Protocol: The adherent cell lines were washed once with 200 μl FBS-free culture medium before treatment. […] compounds in ¼ dilution step with a top dose of 400 μM (range 4×10^−4 to 4×10^−10 M), with 1% (final concentration) Triton X-100 as positive control and FBS-free culture medium as negative control. The cells (190 μl) were incubated in a 200 μl final volume of FBS-free culture medium containing test substances at 37° C. under 5% CO2.
(§1) Three independent experiments were performed, each concentration being tested in quadruplicate. Control cells were treated with vehicle alone. At the end of treatments, the cytotoxic activity was evaluated by a MTS assay (see § 3.3.).
(§2) Like MTT, MTS is bioreduced by cells into a formazan product that is directly soluble in culture medium without processing, unlike MTT.
(§3) At the end of the cells treatment, 40 μl of a 0.22 μm filtered freshly combined solution of MTS (20 ml at 2 mg/ml, Ref G1111, Batch 235897, Exp March 2009, Promega, Charbonnières, France) and PMS (1 ml at 0.92 mg/ml, Ref P9625, Batch 065K0961, Sigma) in Dulbecco's Phosphate Buffered Saline (DPBS, Ref 17-513Q, Batch 6MB0152, Cambrex), were added in each well. Culture plates were incubated for 2 h at 37° C. Absorbency (OD) were measured at 490 nm in each well using VICTOR^3™ 1420 multilabeled counter (Wallac, PerkinElmer, Courtaboeuf, France).
(§4) IC50: drug concentration to obtain a 50% inhibition of cell proliferation.
(§5) The dose-response curves were plotted using XLFit 3 (IDBS, United Kingdom). The IC50 determination values were calculated using the XLFit 3 software from semi-log curves. Individual IC50 determination values as well as mean and SD values were generated.

A375 cells [2] = assay: Release of cytochrome-C (ELISA); type: cell-based, human; details: 35 μM, 5, 15, 45 min
Protocol: A375 cells were seeded as with HMGB1 studies, and treated with 35 μM for different time points (5, 15, 45). Supernatants were collected and concentrated as with HMGB1 studies, and samples from the supernatants were analyzed using a 4.5 hour solid form Cytochrome C—Elisa kit (R&D Systems, USA, #DCTCO) following the manufacturer's description. Shortly thereafter, a 50% diluted sample was analyzed and the optical density was determined using a microplate reader set at 450 nm, and this reading was then subtracted from the reading at 540 nm. A standard curve was generated for each set of samples assayed. Samples were run in four parallels, and the cytochrome-c released into the supernatant was expressed as a fold over the level of cytochrome-c in the supernatant of untreated cells.

MCF-7/mdr = assay: MTS cytotoxicity assay, MCF-7/mdr; type: cell-based, human; details: IC50 resistant / IC50 sensitive line; doxorubicin resistance
Protocol: Tumor cells were plated in 96-well flat-bottom microtitration plates (Nunc, Dutscher, Brumath, France) and incubated at 37° C. for 24 hours before treatment in 190 μl of drug-free culture medium supplemented or not with 10% FBS for adherent or suspension growing cell lines, respectively.
The adherent cell lines were washed once with 200 μl FBS-free culture medium before treatment. Tumor cells were incubated for 4 hours with 10 concentrations of compounds in ¼ dilution step with a top dose of 400 μM (range 4×10^−4 to 4×10^−10 M), with 1% (final concentration) Triton X-100 as positive control and FBS-free culture medium as negative control. The cells (190 μl) were incubated in a 200 μl final volume of FBS-free culture medium containing test substances at 37° C. under 5% CO2.
as §1, §2, §3, §4, §5
Resistance index was calculated using the following formula: […]
Resistance index was calculated for each compound for each couple of sensitive and resistant cell lines. Individual resistance index was calculated when IC50 values of both sensitive and corresponding resistant cell lines were determined within same experiment. In addition, resistance index was also calculated ratio of mean IC50 values obtained during three independent experiments.

[3] = tested on: CT26WT colon carcinoma cells; assay: Re-challenge with CT26WT colon carcinoma in mice with complete regression; type: in vivo, Balb-c mice; details: of 9 mice previously treated with 0.5 or 1 mg
Protocol: Methods: Female Balb-c mice (n=4), previously treated with LTX-315, 1 mg) or (n=9); previously treated with LTX-315 0.5 or 1 mg) were re-inoculated (s.c. in the abdominal area) with either murine A20 B cell lymphoma cells or CT26WT colon carcinoma cells (5 million) respectively 6 weeks following initial treatment with LTX-315. Tumour growth was monitored for up to 36 days following re-inoculation.

A375 cells [4] = assay: Confocal microscopy with fluorescence-labeled peptide (internalization); type: cell-based, human; details: 3 μM and 1.5 μM, 30-60 min
Protocol: Subconfluential A375 cells were seeded at 8,000 cells/well as above, and transfected on the second day using the Lipofectamine LTX with Plus transfection reagents (Invitrogen) following the manufacturer's protocol. The mitochondria were labeled using the pDsRed2-Mito, and the nucleus was labeled using the GFP-Histon2B plasmid (Imaging Platform, University of Tromsø). A day after transfection, cells were washed twice with serum-free RPMI, and treated at different concentration and incubation periods with LTX-315 Pacific Blue or LTX-328 Pacific Blue. […] Control cells were treated with unlabeled LTX-315 and also with serum-free RPMI only. After incubation, cells were fixed with 4% paraformaldehyde in PBS, and the wells were covered with Prolong Gold antifade (Invitrogen). Cells were further analyzed by use of a Leica TCS SP5 confocal microscope, with a […] objective. Pacific Blue, GFP and Ds Red were excited using UV, with 488 and 561 lasers, and fluorescence channels were sequentially detected using the following band passes: UV: 420-480 nm (with attenuation), 488: 501-550 nm and 561: 576-676 nm.

NCCCC[C@H](NC(=O)[C@@H](NC(=O)[C@H](Cc1c[nH]c2ccccc12)NC(=O)[C@H](CCCCN)NC(=O)[C@H](CCCCN)NC(=O)[C@H](Cc1c[nH]c2ccccc12)NC(=O)[C@H](Cc1c[nH]c2ccccc12)NC(=O)[C@H](CCCCN)NC(=O)[C@@H](N)CCCCN)C(c1ccccc1)c1ccccc1)C(N)=O [LTX-315, K-K-W-W-K-K-W-Dip-K-NH2] (H-KKWWKKW[Dip]K-NH2) was tested, and the “Potency rank among the five compounds tested, 37 cell line panel” value [1] was “most potent compound from the five compounds tested”, the IC50 ([1]; 4 h) was 3.63 ± 1.45 µM and the “IC50 range against 37 human cancer cell lines” value ([1]; conclusion) was “micromolar to ten micromolar range”. The “Cytochrome-C in the supernatant compared to untreated control cells” value (A375 cells [2]) was “three times more”, the “Resistance index (RI), MCF-7/mdr” value (MCF-7/mdr) was 1.12 and the “Animals with complete regression after re-inoculation” value [3] was 2. For the same molecule, the “Mice with inhibition of tumour growth after re-inoculation” value ([3]; P<0.01 versus control) was 7 and the “Internalization of Pacific Blue-labeled peptide” value (A375 cells [4]) was “rapidly penetrated the plasma membrane”.
